Values quoted from earlier work as cited in US20220195167A1, “COMPOSITIONS COMPRISING STYRENATED BLOCK COPOLYMER, NON-POLAR OIL AND POLAR OIL” (L'OREAL, priority 2020, published 2022).

Row | SMILES | log P
1 | CCCCCCCC(=O)OCC(COC(=O)CCCCCCC)OC(=O)CCCCCCC [Tricaprylin] | 9.33
2 | CCCCCCCCCCCCCCCC(=O)OC(C)C [Isopropyl palmitate] | 8.49

Now from value to compound:

Row | log P | SMILES
3 | 9.37 | CC(C)CCCCCCCCCCCCCCC(=O)OC(C)C [Isopropyl isostearate]
4 | 10.25 | CC(C)CCCCCCCCCCCCCCCOC(=O)C(C)(C)C [Isostearyl neopentanoate]
5 | 6.00 | CC(C)CCCCCCCOC(=O)C(C)(C)C [Isodecyl neopentanoate]
